Experimental data reported in US20210300940A1 (Merck Patent GmbH, priority 2018, published 2021).
pIC50: −log10 of the molar value. Counter-ions that a name gives are not always drawn.

Assays:
[1] = target: T1, TLR8 (Homo sapiens, UniProt Q9NR97); assay: HEK/293 TLR8 Cell Assay; assay type: cell-based; details: HEK cells, R848 agonist 30 uM final concentration, Steady-Glo readout; read-out: TLR8 potency
T1 construct: expressed in transfected cells; host or cells: HEK/293 reporter cells (NF-kB luciferase)
T1 sequence (Q9NR97 27-1041): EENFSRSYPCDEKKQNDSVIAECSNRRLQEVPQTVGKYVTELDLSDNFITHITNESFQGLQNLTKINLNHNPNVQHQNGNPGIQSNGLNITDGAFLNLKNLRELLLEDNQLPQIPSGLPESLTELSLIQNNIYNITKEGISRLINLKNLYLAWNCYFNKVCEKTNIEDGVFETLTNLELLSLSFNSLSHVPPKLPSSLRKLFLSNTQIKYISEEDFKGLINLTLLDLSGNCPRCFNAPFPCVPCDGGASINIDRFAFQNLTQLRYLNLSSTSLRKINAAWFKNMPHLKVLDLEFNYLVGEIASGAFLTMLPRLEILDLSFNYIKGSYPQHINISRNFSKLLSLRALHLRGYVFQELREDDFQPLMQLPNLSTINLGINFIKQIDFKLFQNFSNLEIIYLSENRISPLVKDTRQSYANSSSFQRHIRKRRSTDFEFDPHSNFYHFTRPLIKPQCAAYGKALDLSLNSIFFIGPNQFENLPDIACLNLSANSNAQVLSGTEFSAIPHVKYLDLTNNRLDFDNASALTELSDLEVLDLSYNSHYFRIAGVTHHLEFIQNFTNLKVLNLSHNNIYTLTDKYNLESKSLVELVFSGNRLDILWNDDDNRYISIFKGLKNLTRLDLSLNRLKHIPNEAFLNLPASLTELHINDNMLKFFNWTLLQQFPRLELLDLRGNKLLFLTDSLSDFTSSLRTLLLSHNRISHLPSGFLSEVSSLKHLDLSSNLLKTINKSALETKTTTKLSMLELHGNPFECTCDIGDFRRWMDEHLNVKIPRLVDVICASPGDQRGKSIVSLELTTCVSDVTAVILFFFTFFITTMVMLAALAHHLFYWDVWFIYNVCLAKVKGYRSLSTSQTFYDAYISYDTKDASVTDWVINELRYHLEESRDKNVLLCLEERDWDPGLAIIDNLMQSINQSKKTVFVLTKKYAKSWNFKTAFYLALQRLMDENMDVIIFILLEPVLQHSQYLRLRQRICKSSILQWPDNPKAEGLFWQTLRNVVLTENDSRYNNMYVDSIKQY

[2] = target: T2, TLR7 (Homo sapiens, UniProt Q9NYK1); assay: HEK/293 TLR7 Cell Assay; assay type: cell-based; details: TLR7/NFKb HEK cells, R848 agonist 10 uM final concentration, Steady-Glo readout; read-out: TLR7 potency
T2 construct: expressed in transfected cells; host or cells: HEK/293 cells carrying TLR7 and an NF-kB luciferase reporter
T2 sequence (Q9NYK1 27-1049): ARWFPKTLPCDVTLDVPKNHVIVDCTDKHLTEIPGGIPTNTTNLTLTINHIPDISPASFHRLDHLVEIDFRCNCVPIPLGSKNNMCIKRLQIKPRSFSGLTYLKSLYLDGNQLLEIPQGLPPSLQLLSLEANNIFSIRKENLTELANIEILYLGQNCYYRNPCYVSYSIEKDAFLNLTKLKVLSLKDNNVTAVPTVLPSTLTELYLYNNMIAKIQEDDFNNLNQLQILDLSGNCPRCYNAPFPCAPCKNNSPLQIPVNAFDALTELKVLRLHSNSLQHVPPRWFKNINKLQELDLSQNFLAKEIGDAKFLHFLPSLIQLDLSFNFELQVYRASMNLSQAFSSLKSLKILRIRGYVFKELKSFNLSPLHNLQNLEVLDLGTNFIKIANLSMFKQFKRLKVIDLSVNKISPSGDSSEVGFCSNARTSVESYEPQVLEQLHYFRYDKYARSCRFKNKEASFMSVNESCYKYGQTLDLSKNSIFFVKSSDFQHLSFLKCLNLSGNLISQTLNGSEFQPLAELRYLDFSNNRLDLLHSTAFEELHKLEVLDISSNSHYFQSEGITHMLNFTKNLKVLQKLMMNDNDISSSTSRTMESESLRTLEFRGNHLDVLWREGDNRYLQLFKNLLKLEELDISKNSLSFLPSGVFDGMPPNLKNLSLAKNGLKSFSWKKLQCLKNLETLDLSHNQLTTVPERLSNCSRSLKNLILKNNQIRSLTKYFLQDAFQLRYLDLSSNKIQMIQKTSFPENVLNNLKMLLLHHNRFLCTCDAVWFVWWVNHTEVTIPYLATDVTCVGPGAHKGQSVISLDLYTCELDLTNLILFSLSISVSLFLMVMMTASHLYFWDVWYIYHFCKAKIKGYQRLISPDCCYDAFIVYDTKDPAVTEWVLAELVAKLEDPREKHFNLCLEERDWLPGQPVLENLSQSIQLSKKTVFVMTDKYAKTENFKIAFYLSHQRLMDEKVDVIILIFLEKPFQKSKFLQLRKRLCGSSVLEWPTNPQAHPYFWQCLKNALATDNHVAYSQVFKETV
How it was run: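 TLR7/NF-κB reporter HEK293 cells, 5000/well, cultured 24 h, then preincubated 30 min with compound before R848 agonist (10 uM final). After 5 h stimulation, Steady-Glo luciferase luminescence read.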

`C[C@@H]1CN(c2ccc(C#N)c3nccnc23)C[C@H](C(=O)NCC2CCCN2C)O1` (stereo partly drawn) [Example 245, (2R,6R)-4-(8-Cyano-quinoxalin-5-yl)-6-methyl-morpholine-2-carboxylic acid (1-methyl-pyrrolidin-2-ylmethyl)-amide] gave a pIC50 [1] greater than 7.12 and a pIC50 [2] greater than 7.12.
With `C[C@H]1C[C@@H](N)CN(c2cnc(C(F)(F)F)c3ncccc23)C1` [Example 7, (3R,5S)-5-Methyl-1-(8-trifluoromethyl-[1,7]naphthyridin-5-yl)-piperidin-3-ylamine hydrochloride] the pIC50 [1] was greater than 7.12 and the pIC50 [2] was greater than 7.12.
“(2S)—N-[(3R,5S)-5-amino-1-(8-cyanoquinazolin-5-yl)piperidin-3-yl]-2-(4-methylpiperazin-1-yl)propanamide [Example 97]” was tested, and the pIC50 [1] was less than 6.82 and the pIC50 [2] was greater than 7.12.
`N#Cc1ccc(N2C[C@H](CN3CC(O)C3)O[C@H](C(F)(F)F)C2)c2nccnc12` (single isomer, unassigned) [Example 361] was tested, and the pIC50 [1] was 6.82 to 7.12 and the pIC50 [2] was greater than 7.12.
`C[C@@H]1CN(c2ccc(C#N)c3nccnc23)C[C@H](C(=O)NC[C@@H](O)CN(C)C)O1` (single isomer, unassigned) [Example 262] was tested, and the pIC50 [1] was greater than 7.12 and the pIC50 [2] was greater than 7.12.
In the case of `CCN(CC)CCO[C@@H]1C[C@H](C)CN(c2ccc(C#N)c3nccnc23)C1` [Example 6, 8-[(3R,5S)-3-[2-(diethylamino)ethoxy]-5-methylpiperidin-1-yl]quinoxaline-5-carbonitrile], the pIC50 [1] was greater than 7.12 and the pIC50 [2] was greater than 7.12.
With `C[C@@H]1CN(c2cnc(C#N)c3ncccc23)C[C@H](CN2CCC(N3CCOCC3)CC2)O1` [Example 367, 5-[(2R,6S)-2-Methyl-6-(4-morpholin-4-yl-piperidin-1-ylmethyl)-morpholin-4-yl]-[1,7]naphthyridine-8-carbonitrile] the pIC50 [1] was greater than 7.12 and the pIC50 [2] was 6.82 to 7.12.
Compound `N#Cc1ccc(N2C[C@H](NC(=O)CC3CCNCC3F)C[C@H](C(F)(F)F)C2)c2cccnc12` (stereo partly drawn) [Example 138, N-[(3R,5S)-1-(8-Cyano-quinolin-5-yl)-5-trifluoromethyl-piperidin-3-yl]-2-(3-fluoro-piperidin-4-yl)-acetamide] has a pIC50 [1] greater than 7.12 and a pIC50 [2] greater than 7.12.
Compound `C[C@@H]1CN(c2ccc(C#N)c3nccnc23)C[C@H](C(=O)NCCN2CCS(=O)(=O)CC2)O1` [Example 239, (2R,6R)-4-(8-Cyano-quinoxalin-5-yl)-6-methyl-morpholine-2-carboxylic acid [2-(1,1-dioxo-1lambda6-thiomorpholin-4-yl)-ethyl]-amide] has a pIC50 [1] of less than 6.82 and a pIC50 [2] greater than 7.12.
With `C[C@@H]1CN(c2ccc(C#N)c3nccnc23)C[C@H](C(=O)NCCS(C)(=O)=O)O1` [Example 256, (2R,6R)-4-(8-cyanoquinoxalin-5-yl)-N-(2-methanesulfonylethyl)-6-methyl morpholine-2-carboxamide] the pIC50 [1] was greater than 7.12 and the pIC50 [2] was greater than 7.12.
`C[C@H]1C[C@@H](NC(=O)CCn2ccnc2)CN(c2ccc(C#N)c3nccnc23)C1` [Example 193, N-[(3R,5S)-1-(8-Cyano-quinoxalin-5-yl)-5-methyl-piperidin-3-yl]-3-imidazol-1-yl-propionamide] gave a pIC50 [1] greater than 7.12 and a pIC50 [2] greater than 7.12.
Compound `CN(C)CCC(=O)N[C@@H]1C[C@H](C(F)(F)F)CN(c2ccc(C#N)c3nccnc23)C1` [Example 75] has a pIC50 [1] greater than 7.12 and a pIC50 [2] greater than 7.12.
Compound `Cc1noc([C@H]2CN(c3ccc(C#N)c4nccnc34)C[C@@H](C)O2)n1` (racemic) [Example 213, 8-[(2R,6R)-2-Methyl-6-(3-methyl-[1,2,4]oxadiazol-5-yl)-morpholin-4-yl]-quinoxaline-5-carbonitrile] has a pIC50 [1] greater than 7.12 and a pIC50 [2] of less than 6.82.
In the case of `C[C@H]1C[C@@H](NC(=O)[C@@H](N)[C@@H](C)O)CN(c2ccc(C(F)(F)F)c3ncccc23)C1` [Example 169, (2S,3R)-2-Amino-3-hydroxy-N-[(3R,5S)-5-methyl-1-(8-trifluoromethyl-quinolin-5-yl)-piperidin-3-yl]-butyramide], the pIC50 [1] was greater than 7.12 and the pIC50 [2] was greater than 7.12.
`Cc1c(F)cc(N2C[C@H](NC(=O)CC3C4CC3CN(C)C4)C[C@H](C(F)(F)F)C2)c2cccnc12` (stereo partly drawn) [Example 113, N-[(3R,5S)-1-(7-Fluoro-8-methyl-quinolin-5-yl)-5-trifluoromethyl-piperidin-3-yl]-2-(3-methyl-3-aza-bicyclo[3.1.1]hept-6-yl)-acetamide] showed a pIC50 [1] greater than 7.12 and a pIC50 [2] of 6.82 to 7.12.
`C[C@H]1C[C@@H](NC(=O)CCN(C)C)CN(c2ccc(C#N)c3nccnc23)C1` [Example 79] showed a pIC50 [1] greater than 7.12 and a pIC50 [2] greater than 7.12.
In the case of `C[C@@H]1CN(c2ccc(C#N)c3nccnc23)C[C@H](CSC[C@@H](O)CO)O1` (single isomer, unassigned) [Example 230], the pIC50 [1] was greater than 7.12 and the pIC50 [2] was greater than 7.12.
`C[C@H]1C[C@@H](NC(=O)[C@H]2COCCN2)CN(c2ccc(C#N)c3nccnc23)C1` [Example 209, (3R)—N-[(3R,5S)-1-(8-cyanoquinoxalin-5-yl)-5-methylpiperidin-3-yl]morpholine-3-carboxamide] showed a pIC50 [1] greater than 7.12 and a pIC50 [2] of 6.82 to 7.12.
`CN(C)CCNC(=O)N[C@@H]1C[C@H](C(F)(F)F)CN(c2ccc(C(F)(F)F)c3ncccc23)C1` [Example 144, 3-[2-(dimethylamino)ethyl]-1-[(3R,5S)-5-(trifluoromethyl)-1-[8-(trifluoromethyl)quinolin-5-yl]piperidin-3-yl]urea] showed a pIC50 [1] greater than 7.12 and a pIC50 [2] of 6.82 to 7.12.
Work on `C[C@@H]1CN(c2ccc(C#N)c3nccnc23)C[C@H](C(=O)N[C@@H]2CCN(CC3CC3)C2)O1` [Example 323, (2R,6R)-4-(8-Cyano-quinoxalin-5-yl)-6-methyl-morpholine-2-carboxylic acid ((R)-cyclopropylmethyl-pyrrolidin-3-yl)-amide] yielded a pIC50 [1] greater than 7.12 and a pIC50 [2] greater than 7.12.
`CONC(=O)CCCN[C@@H]1C[C@H](C)CN(c2ccc(C(F)(F)F)c3nccnc23)C1` [Example 52, N-Methoxy-4-[(3R,5S)-5-methyl-1-(8-trifluoromethyl-quinoxalin-5-yl)-piperidin-3-ylamino]-butyramide] showed a pIC50 [1] greater than 7.12 and a pIC50 [2] greater than 7.12.
`C[C@H]1C[C@@H](NC(=O)C2(F)CCNC2)CN(c2ccc(C(F)(F)F)c3ncccc23)C1` (stereo partly drawn) [Example 205, 3-fluoro-N-[(3R,5S)-5-methyl-1-[8-(trifluoromethyl)quinolin-5-yl]piperidin-3-yl]pyrrolidine-3-carboxamide] showed a pIC50 [1] greater than 7.12 and a pIC50 [2] greater than 7.12.
`Cc1ccc(N2C[C@@H](C)C[C@@H](NC(=O)CC3CCN(C(C)C)CC3)C2)c2cccnc12` [Example 108, 2-(1-Isopropyl-piperidin-4-yl)-N-[(3R,5S)-5-methyl-1-(8-methyl-quinolin-5-yl)-piperidin-3-yl]-acetamide] was tested, and the pIC50 [1] was greater than 7.12 and the pIC50 [2] was greater than 7.12.
